According to paper PMC10587159, “Biosynthesis and engineering of the nonribosomal peptides with a C-terminal putrescine” (Nature Communications, 2023):

System: A1 domain of CsA1T1 (GdnA)
Assay: Adenylation activity of A1 domain (ATP/PPi exchange, pyrophosphate production assay)
Assay type: biochemical, Schlegelella brevitalea DSM 7029
Conditions: for relative activity of A1 domain for the activation of amino acids, Average: CsA1T1 1 μM, 10 mM amino acid, 2.5 mM ATP, pH 7.6, A360, L-Met = 100%, mean of n = 3; for selectivity of A1 domain for amino acids in words: response to reviewers on Supplementary Fig. 6a
Protocol: For pyrophosphate production assays, the reaction system contains 10 mM amino acid substrates, 2.5 mM ATP (Solarbio), 0.2 mM MESG (Medchemexpress), 1 U/mL purine nucleoside phosphorylase (Shanghai yuanye Bio-Technology Co., Ltd), 0.4 U/mL inorganic pyrophosphatase (Sigma), 150 mM hydroxylamine (Sigma) and 1 μM proteins in 100 μL buffer (50 mM Tris, 300 mM NaCl and 5 mM MgCl2, pH 7.6). The value was read at A360 in a SpectraMax M5 plate reader (Molecular Devices, Sunnyvale, California) in 96 well, clear-bottomed plates (Corning). A360 values were converted to pyrophosphate release, by comparing with a standard curve (KH2PO4 from 2 μM to 128 μM) for known quantities of pyrophosphate.

Compound	relative activity of A1 domain for the activation of amino acids, Average [%]	selectivity of A1 domain for amino acids in words
N[C@@H](CCC(=O)O)C(=O)O [L-Glu]	43.4238	broad selectivity
N[C@@H](Cc1c[nH]cn1)C(=O)O [L-His]	1.516	–
CC[C@H](C)[C@H](N)C(=O)O [L-Ile]	8.11	weaker selectivity
CC(C)C[C@H](N)C(=O)O [L-Leu]	48.0078	–
NCCCC[C@H](N)C(=O)O [L-Lys]	–	no activity
C[S+]([O-])CC[C@H](N)C(=O)O (stereo partly drawn) [L-MetO]	74.5064	–
CSCC[C@H](N)C(=O)O [L-Met]	100	–
N[C@@H](Cc1ccccc1)C(=O)O [L-Phe]	16.3434	–
N[C@@H](CO)C(=O)O [L-Ser]	10.8427	–
C[C@@H](O)[C@H](N)C(=O)O [L-Thr]	9.697	–
N[C@@H](Cc1c[nH]c2ccccc12)C(=O)O [L-Trp]	8.022	–
CC(C)[C@H](N)C(=O)O [L-Val]	4.884	weaker selectivity
